Like-named read-outs stand apart in the source and are kept apart here.
Molecular target: NR1/NR2A (Homo sapiens (Human), UniProt Q05586+Q12879)
Assay: FDSS Ca2+ influx inhibition assay in HEK293 cells expressing NR1/NR2A
Format: cell-based
Settings: 3 μM glutamate, 3 μM glycine, 1 mM Ca2+
Outline: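 Fluo-8-loaded HEK293 NR1/NR2A cells preincubated 10 min with compound at 10 μM final (0.1% DMSO) in Ca2+/Mg2+-free HBSS with 20 mM HEPES. Stimulated with 3 μM glutamate, 3 μM glycine, 1 mM Ca2+; FDSS recording for 3 min, end/baseline fluorescence ratio compared with MK801.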

[1] = inhibition relative to MK801, read-out: NR2A IC50

Chain of NR1/NR2A (Q12879 23-1464, other chains not shown): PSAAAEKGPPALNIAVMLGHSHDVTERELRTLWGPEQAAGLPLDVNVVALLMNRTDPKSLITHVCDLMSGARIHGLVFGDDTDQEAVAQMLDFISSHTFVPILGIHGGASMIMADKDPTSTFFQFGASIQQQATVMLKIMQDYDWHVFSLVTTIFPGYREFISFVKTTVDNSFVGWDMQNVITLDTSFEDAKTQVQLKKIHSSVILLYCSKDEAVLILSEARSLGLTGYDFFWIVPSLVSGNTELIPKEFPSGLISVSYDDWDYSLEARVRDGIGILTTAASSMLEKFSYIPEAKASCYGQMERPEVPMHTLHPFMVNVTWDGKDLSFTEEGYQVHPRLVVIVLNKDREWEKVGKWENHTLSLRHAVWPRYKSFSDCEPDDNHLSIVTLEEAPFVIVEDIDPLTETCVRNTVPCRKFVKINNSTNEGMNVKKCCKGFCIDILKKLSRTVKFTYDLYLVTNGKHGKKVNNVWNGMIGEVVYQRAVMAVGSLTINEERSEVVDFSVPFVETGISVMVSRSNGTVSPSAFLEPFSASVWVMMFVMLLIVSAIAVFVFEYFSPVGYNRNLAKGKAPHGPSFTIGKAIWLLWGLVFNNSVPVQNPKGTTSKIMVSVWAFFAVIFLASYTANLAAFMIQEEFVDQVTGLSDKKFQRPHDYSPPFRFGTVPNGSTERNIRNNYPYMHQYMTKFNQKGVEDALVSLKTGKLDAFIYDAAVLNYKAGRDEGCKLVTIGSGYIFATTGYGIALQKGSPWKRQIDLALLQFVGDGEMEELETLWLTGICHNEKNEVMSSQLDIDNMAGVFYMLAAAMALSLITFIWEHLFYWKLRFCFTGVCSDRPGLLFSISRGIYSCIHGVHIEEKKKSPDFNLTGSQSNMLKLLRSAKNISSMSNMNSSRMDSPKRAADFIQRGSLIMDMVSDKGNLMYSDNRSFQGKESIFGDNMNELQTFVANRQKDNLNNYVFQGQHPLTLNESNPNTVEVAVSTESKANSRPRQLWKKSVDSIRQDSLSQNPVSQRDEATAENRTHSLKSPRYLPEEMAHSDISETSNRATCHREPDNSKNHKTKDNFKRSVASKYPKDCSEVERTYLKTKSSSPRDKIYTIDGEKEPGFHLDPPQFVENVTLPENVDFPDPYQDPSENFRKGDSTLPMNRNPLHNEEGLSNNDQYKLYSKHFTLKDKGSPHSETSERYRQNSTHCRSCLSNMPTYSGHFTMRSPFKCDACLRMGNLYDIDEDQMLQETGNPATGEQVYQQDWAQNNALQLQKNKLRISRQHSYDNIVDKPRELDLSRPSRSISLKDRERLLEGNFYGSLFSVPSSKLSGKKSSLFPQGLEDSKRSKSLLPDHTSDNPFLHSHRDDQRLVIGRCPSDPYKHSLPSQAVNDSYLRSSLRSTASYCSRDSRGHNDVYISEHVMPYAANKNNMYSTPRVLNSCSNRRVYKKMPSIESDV

| IC50 [1] [µM] | IC50 (read-out: Binned Activity) [µM] | SMILES |
| --- | --- | --- |
| 10 | > 10 | O=C(NCc1ccncn1)c1cnc(CNS(=O)(=O)c2ccc(F)c(Cl)c2)cn1 [5-(3-chloro-4-fluorobenzenesulfon-amidomethyl)-N-(pyrimidin-4-ylmethyl)pyrazine-2-carboxamide] |
| 10 | > 10 | Cc1nc(C)c(CNC(=O)c2ccc(CNS(=O)(=O)c3ccc(F)c(Cl)c3)nc2)s1 [6-(3-chloro-4-fluorobenzenesulfon-amidomethyl)-N-[(dimethyl-1,3-thiazol-5-yl)methyl]pyridine-3-carboxamide] |
|  | 1 to 10 | Cn1cccc1CNC(=O)c1cnc(CNS(=O)(=O)c2ccc(F)c(Cl)c2)cn1 [5-(3-chloro-4-fluorobenzenesulfon-amidomethyl)-N-[(1-methyl-1H-pyrrol-2-yl)methyl]pyrazine-2-carboxamide] |
|  | 0.1 to 1 | Cc1ncc(CNC(=O)c2cnc(CNS(=O)(=O)c3cccc(Cl)c3)cn2)s1 [5-(3-chlorobenzenesulfon-amidomethyl)-N-[(2-methyl-1,3-thiazol-5-yl)methyl]pyrazine-2-carboxamide] |
| 10 | > 10 | Cc1ncc(CNC(=O)c2cnc(CNC(=O)c3cccc(C#N)c3)cn2)s1 [5-{[(3-cyanophenyl)formamido]methyl}-N-[(2-methyl-1,3-thiazol-5-yl)methyl]pyrazine-2-carboxamide] |
|  | 1 to 10 | Cc1ncc(CNC(=O)c2ccc(CNS(=O)(=O)c3cccc(Cl)c3)cn2)s1 [5-(3-chlorobenzenesulfon-amidomethyl)-N-[(2-methyl-1,3-thiazol-5-yl)methyl]pyridine-2-carboxamide] |
|  | 1 to 10 | Cn1cncc1CNC(=O)c1cnc(CNS(=O)(=O)c2ccc(F)c(Cl)c2)cn1 [5-(3-chloro-4-fluorobenzenesulfon-amidomethyl)-N-[(1-methyl-1H-imidazol-5-yl)methyl]pyrazine-2-carboxamide] |
| 10 | > 10 | Cc1ncc(CNC(=O)c2cnc(CNC(=O)c3cc(Cl)ccc3F)c(C)n2)s1 [5-{[(5-chloro-2-fluorophenyl)formamido]methyl}-6-methyl-N-[(2-methyl-1,3-thiazol-5-yl)methyl]pyrazine-2-carboxamide] |
| 10 | > 10 | O=C(NCc1ccncn1)c1ccc(CNS(=O)(=O)c2ccc(F)c(Cl)c2)nn1 [6-(3-chloro-4-fluorobenzenesulfon-amidomethyl)-N-(pyrimidin-4-ylmethyl)pyridazine-3-carboxamide] |
| 10 | > 10 | Cc1nc(CNC(=O)c2cnc(CNS(=O)(=O)c3ccc(F)c(Cl)c3)cn2)cs1 [5-(3-chloro-4-fluorobenzenesulfon-amidomethyl)-N-[(2-methyl-1,3-thiazol-4-yl)methyl]pyrazine-2-carboxamide] |
| 10 | > 10 | Cc1ncsc1CNC(=O)c1ccc(CNS(=O)(=O)c2ccc(F)c(Cl)c2)nc1 [6-(3-chloro-4-fluorobenzenesulfon-amidomethyl)-N-[(4-methyl-1,3-thiazol-5-yl)methyl]pyridine-3-carboxamide] |
|  | 1 to 10 | Cc1ncc(CNC(=O)c2ccc(CNS(=O)(=O)c3ccc(Cl)c(Cl)c3)cn2)s1 [5-(3,4-dichlorobenzenesulfon-amidomethyl)-N-[(2-methyl-1,3-thiazol-5-yl)methyl]pyridine-2-carboxamide] |
| 10 | > 10 | O=C(NCc1ccoc1)c1ccc(CNS(=O)(=O)c2ccc(F)c(Cl)c2)nn1 [6-(3-chloro-4-fluorobenzenesulfon-amidomethyl)-N-(furan-3-ylmethyl)pyridazine-3-carboxamide] |
| 10 | > 10 | CC(=O)N1CCc2cc(S(=O)(=O)NCc3cnc(C(=O)NCc4cnc(C)s4)cn3)ccc21 [5-(1-acetyl-2,3-dihydro-1H-indole-5-sulfonamidomethyl)-N-[(2-methyl-1,3-thiazol-5-yl)methyl]pyrazine-2-carboxamide] |
| 10 | > 10 | Cc1ncc(CNC(=O)c2ccc(CNS(=O)(=O)c3ccc(-c4csnn4)cc3)cn2)s1 [N-[(2-methyl-1,3-thiazol-5-yl)methyl]-5-[4-(1,2,3-thiadiazol-4-yl)benzenesulfonamido-methyl]pyridine-2-carboxamide] |
| 10 | > 10 | O=C(NCc1ccccn1)c1cnc(CNS(=O)(=O)c2ccc(F)c(Cl)c2)cn1 [5-(3-chloro-4-fluorobenzenesulfon-amidomethyl)-N-(pyridin-2-ylmethyl)pyrazine-2-carboxamide] |
|  | 1 to 10 | O=C(NCc1cnccn1)c1cnc(CNS(=O)(=O)c2ccc(F)c(Cl)c2)cn1 [5-(3-chloro-4-fluorobenzenesulfon-amidomethyl)-N-(pyrazin-2-ylmethyl)pyrazine-2-carboxamide] |

| IC50 [1] [µM] | IC50 (read-out: Binned Activity) [µM] | SMILES |
| --- | --- | --- |
| 10 | > 10 | Cc1nnc(CNC(=O)c2ccc(CNS(=O)(=O)c3ccc(F)c(Cl)c3)nc2)o1 [6-(3-chloro-4-fluorobenzenesulfon-amidomethyl)-N-[(5-methyl-1,3,4-oxadiazol-2-yl)methyl]pyridine-3-carboxamide] |
|  | 1 to 10 | Cn1cc(CNC(=O)c2ccc(CNS(=O)(=O)c3ccc(F)c(Cl)c3)cn2)cn1 [5-(3-chloro-4-fluorobenzenesulfon-amidomethyl)-N-[(1-methyl-1H-pyrazol-4-yl)methyl]pyridine-2-carboxamide] |
| 10 | > 10 | O=C(NCc1ccncc1)c1ccc(CNS(=O)(=O)c2ccc(F)c(Cl)c2)nn1 [6-(3-chloro-4-fluorobenzenesulfon-amidomethyl)-N-(pyridin-4-ylmethyl)pyridazine-3-carboxamide] |
|  | 0.1 to 1 | Cc1cnc(CNC(=O)c2ccc(CNS(=O)(=O)c3ccc(F)c(Cl)c3)nc2)cn1 [6-(3-chloro-4-fluorobenzenesulfon-amidomethyl)-N-[(5-methylpyrazin-2-yl)methyl]pyridine-3-carboxamide] |
|  | 1 to 10 | O=C(NCc1nccs1)c1ccc(CNS(=O)(=O)c2ccc(F)c(Cl)c2)cn1 [5-(3-chloro-4-fluorobenzenesulfon-amidomethyl)-N-(1,3-thiazol-2-ylmethyl)pyridine-2-carboxamide] |
| 10 | > 10 | Cc1ncc(CNC(=O)c2ccc(CNS(=O)(=O)c3ccc(C(F)(F)F)cc3)cn2)s1 [N-[(2-methyl-1,3-thiazol-5-yl)methyl]-5-[4-(trifluoromethyl)benzene-sulfonamidomethyl] pyridine-2-carboxamide] |
| 10 | > 10 | O=C(NCc1ccoc1)c1ccc(CNS(=O)(=O)c2ccc(F)c(Cl)c2)cn1 [5-(3-chloro-4-fluorobenzenesulfon-amidomethyl)-N-(furan-3-ylmethyl)pyridine-2-carboxamide] |
| 10 | > 10 | C[C@@H](NC(=O)c1ccc(CNS(=O)(=O)c2ccc(F)c(Cl)c2)cn1)c1cncs1 [5-(3-chloro-4-fluorobenzenesulfon-amidomethyl)-N-[(1R)-1-(1,3-thiazol-5-yl)ethyl]pyridine-2-carboxamide] |
| 10 | > 10 | Cc1ncc(CNC(=O)c2ccc(CNS(=O)(=O)c3cn(C)cn3)cn2)s1 [N-[(2-methyl-1,3-thiazol-5-yl)methyl]-5-(1-methyl-1H-imidazole-4-sulfonamidomethyl) pyridine-2-carboxamide] |
| 10 | > 10 | Cn1cnc(CNC(=O)c2ccc(CNS(=O)(=O)c3ccc(F)c(Cl)c3)cn2)c1 [5-(3-chloro-4-fluorobenzenesulfon-amidomethyl)-N-[(1-methyl-1H-imidazol-4-yl)methyl]pyridine-2-carboxamide] |
| 10 | > 10 | O=C(NCc1nccs1)c1cnc(CNS(=O)(=O)c2ccc(F)c(Cl)c2)cn1 [5-(3-chloro-4-fluorobenzenesulfon-amidomethyl)-N-(1,3-thiazol-2-ylmethyl)pyrazine-2-carboxamide] |
| 10 | > 10 | COc1ccc(CCNC(=O)c2ccc(CNS(=O)(=O)c3ccc(F)c(Cl)c3)nn2)cc1 [6-(3-chloro-4-fluorobenzenesulfon-amidomethyl)-N-[2-(4-methoxyphenyl)ethyl] pyridazine-3-carboxamide] |
|  | 1 to 10 | O=C(NCc1cncnc1)c1cnc(CNS(=O)(=O)c2ccc(F)c(Cl)c2)cn1 [5-(3-chloro-4-fluorobenzenesulfon-amidomethyl)-N-(pyrimidin-5-ylmethyl)pyrazine-2-carboxamide] |
|  | 1 to 10 | Cc1nnc(CNC(=O)c2ccc(CNS(=O)(=O)c3ccc(F)c(Cl)c3)cn2)o1 [5-(3-chloro-4-fluorobenzenesulfon-amidomethyl)-N-[(5-methyl-1,3,4-oxadiazol-2-yl)methyl]pyridine-2-carboxamide] |
| 10 | > 10 | Cc1ncc(CNC(=O)c2cnc(CNC(=O)c3cc(Cl)ccc3F)cn2)s1 [5-{[(5-chloro-2-fluorophenyl)formamido]methyl}-N-[(2-methyl-1,3-thiazol-5-yl)methyl]pyrazine-2-carboxamide] |
| 10 | > 10 | Cc1ncc(CNC(=O)c2ccc(CNC(=O)c3cc(F)cc(F)c3)cn2)s1 [5-{[(3,5-difluorophenyl)form-amido]methyl}-N-[(2-methyl-1,3-thiazol-5-yl)methyl]pyridine-2-carboxamide] |
|  | 0.1 to 1 | Cc1ncc(C(C)NC(=O)c2cnc(CNS(=O)(=O)c3ccc(F)c(Cl)c3)cn2)s1 (stereo not drawn) [5-(3-chloro-4-fluorobenzenesulfon-amidomethyl)-N-[1-(2-methyl-1,3-thiazol-5-yl)ethyl]pyrazine-2-carboxamide] |

| SMILES | IC50 [1] [µM] | IC50 (read-out: Binned Activity) [µM] |
| --- | --- | --- |
| C[C@@H](NC(=O)c1ccc(CNS(=O)(=O)c2ccc(F)c(Cl)c2)nc1)c1cncs1 [6-(3-chloro-4-fluorobenzenesulfon-amidomethyl)-N-[(1R)-1-(1,3-thiazol-5-yl)ethyl]pyridine-3-carboxamide] | 10 |  |

Reference: patent publication US9963434B2, “N-arylmethyl sulfonamide negative modulators of NR2A” (LUC THERAPEUTICS, priority 2013, dated 2018)
